Measured values reported in patent US10681909B2, “Herbicidal triazoles” (FMC Corporation, priority 2014, dated 2020).

Experiments:
barnyardgrass [1] = assay: Test A postemergence; assay type: in vivo, Echinochloa crus-galli; conditions: Echinochloa crus-galli, post-emergence, 240 h, 0 to 100 scale (0 no effect, 100 complete control), approx. 10 d, read-out: Plant response rating, Barnyardgrass; for pest or weed control at 125 g/ha: 125 g ai/ha
Procedure, shortened: (§1)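 Loam/sand soil mix; compound in non-phytotoxic solvent + surfactant. Pre: directed soil spray right after planting seed. Post: potted plants 2–10 cm, 1–2 leaf stage, sprayed with same formulation.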

foxtail, giant [2] = assay: Test A postemergence; assay type: in vivo, Setaria faberii; conditions: Setaria faberi, post-emergence, 240 h, 0 to 100 scale (0 no effect, 100 complete control), approx. 10 d, read-out: Plant response rating, Foxtail, Giant; for pest or weed control at 125 g/ha: 125 g ai/ha
Procedure, shortened: as §1

pigweed [3] = assay: Test A postemergence; assay type: in vivo, Amaranthus retroflexus; conditions: Amaranthus retroflexus, post-emergence, 240 h, 0 to 100 scale (0 no effect, 100 complete control), approx. 10 d, read-out: Plant response rating, Pigweed; for pest or weed control at 125 g/ha: 125 g ai/ha
Procedure, shortened: as §1

corn [4] = assay: Test A postemergence; assay type: in vivo, Zea mays; conditions: Zea mays, post-emergence, 240 h, 0 to 100 scale (0 no effect, 100 complete control), approx. 10 d; for Corn plant response rating (crop injury, 0 = no effect, 100 = complete kill) at 125 g/ha: 125 g ai/ha
Procedure, shortened: as §1

rice = assay: Test B flooded paddy test; assay type: in vivo, Oryza sativa; conditions: Oryza sativa, 360 h, 125 g ai/ha, applied to paddy water at 2-leaf stage, visual rating after 13 to 15 d, scale 0 (no effect) to 100 (complete control), read-out: Plant response rating, Rice, Flood
Procedure, shortened: (§2)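 Pots were flooded to 3 cm above the soil at treatment, and compounds were applied directly into the paddy water. That depth was held throughout. After 13 to 15 d in a greenhouse, plants were rated visually against untreated controls.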

sedge, umbrella = assay: Test B flooded paddy test; assay type: in vivo, Cyperus difformis; conditions: Cyperus difformis, 360 h, 125 g ai/ha, applied to paddy water at 2-leaf stage, visual rating after 13 to 15 d, scale 0 (no effect) to 100 (complete control), read-out: Plant response rating, Sedge, Umbrella, Flood
Procedure, shortened: as §2

ducksalad = assay: Test B flooded paddy test; assay type: in vivo, Heteranthera limosa; conditions: Heteranthera limosa, 360 h, 125 g ai/ha, applied to paddy water at 2-leaf stage, visual rating after 13 to 15 d, scale 0 (no effect) to 100 (complete control), read-out: Plant response rating, Ducksalad, Flood
Procedure, shortened: as §2

barnyardgrass [5] = assay: Test B flooded paddy test; assay type: in vivo, Echinochloa crus-galli; conditions: Echinochloa crus-galli, 360 h, 125 g ai/ha, applied to paddy water at 2-leaf stage, visual rating after 13 to 15 d, scale 0 (no effect) to 100 (complete control), read-out: Plant response rating, Barnyardgrass, Flood
Procedure, shortened: as §2

ryegrass, Italian = assay: Test C postemergence; assay type: in vivo, Lolium multiflorum
Source text: (§3) Seeds of plant species selected from blackgrass (Alopecurus myosuroides), ryegrass, Italian (Italian ryegrass, Lolium multiflorum), wheat (winter wheat, Triticum aestivum), galium (catchweed bedstraw, Galium aparine), corn (Zea mays), crabgrass, large (large crabgrass, Digitaria sanguinalis), foxtail, giant, (giant foxtail, Setaria faberii), johnsongrass (Sorghum halepense), lambsquarters (Chenopodium album), morningglory (Ipomoea coccinea), nutsedge, yellow (yellow nutsedge, Cyperus esculentus), pigweed (Amaranthus retroflexus), ragweed (common ragweed, Ambrosia elatior), soybean (Glycine max), barnyardgrass (Echinochloa crus-galli), oilseed rape (Brassica napus), waterhemp (common waterhemp, Amaranthus rudis), and velvetleaf (Abutilon theophrasti) were planted into a blend of loam soil and sand and treated preemergence with test chemicals formulated in a non-phytotoxic solvent mixture which included a surfactant. At the same time, plants selected from these crop and weed species and also chickweed (common chickweed, Stellaria media), oat, wild (wild oat, Avena fatua), and kochia (Kochia scoparia), were planted in pots containing Sunshine Redi-Earth® planting medium comprising spaghnum peat moss, vermiculite, starter nutrients and dolomitic limestone and treated with postemergence applications of test chemicals formulated in the same manner. Plants ranged in height from 2 to 18 cm (1- to 4-leaf stage) for postemergence treatments. […] A dash (-) response means no test result.

wheat (winter wheat) = assay: Test C postemergence; assay type: in vivo, Triticum aestivum
Source text: as §3

galium = assay: Test C postemergence; assay type: in vivo, Galium aparine
Source text: as §3

corn [6] = assay: Test C postemergence; assay type: in vivo, Zea mays
Source text: as §3

foxtail, giant [7] = assay: Test C postemergence; assay type: in vivo, Setaria faberii
Source text: as §3

johnsongrass = assay: Test C postemergence; assay type: in vivo, Sorghum halepense
Source text: as §3

lambsquarters = assay: Test C postemergence; assay type: in vivo, Chenopodium album
Source text: as §3

nutsedge, yellow = assay: Test C postemergence; assay type: in vivo, Cyperus esculentus
Source text: as §3

pigweed [8] = assay: Test C postemergence; assay type: in vivo, Amaranthus retroflexus
Source text: as §3

ragweed = assay: Test C postemergence; assay type: in vivo, Ambrosia elatior
Source text: as §3

oilseed rape = assay: Test C postemergence; assay type: in vivo, Brassica napus
Source text: as §3

chickweed = assay: Test C postemergence; assay type: in vivo, Stellaria media
Source text: as §3

oat, wild = assay: Test C postemergence; assay type: in vivo, Avena fatua
Source text: as §3

## Cn1nc(-c2ccc(F)cc2)nc1C(O)c1ccnc(C(F)(F)F)c1 (stereo not drawn) [Compound 14, α-[3-(4-fluorophenyl)-1-methyl-1H-1,2,4-triazol-5-yl]-2-(trifluoromethyl)-4-pyridinemethanol]
Barnyardgrass [1]
  pest or weed control at 125 g/ha: 10%
Barnyardgrass [1]; 500 g ai/ha
  pest or weed control at 500 g/ha: 20%
foxtail, giant [2]
  pest or weed control at 125 g/ha: 20%
foxtail, giant [2]; 500 g ai/ha
  pest or weed control at 500 g/ha: 30%
Pigweed [3]
  pest or weed control at 125 g/ha: 60%
Pigweed [3]; 500 g ai/ha
  pest or weed control at 500 g/ha: 90%
Corn [4]
  Corn plant response rating (crop injury, 0 = no effect, 100 = complete kill) at 125 g/ha: 10%
Corn [4]; 500 g ai/ha
  Corn plant response rating (crop injury, 0 = no effect, 100 = complete kill) at 500 g/ha: 20%
rice
  plant injury at 125 g/ha: 0%
sedge, umbrella
  pest or weed control at 125 g/ha: 0%
ducksalad
  pest or weed control at 125 g/ha: 0%
Barnyardgrass [5]
  pest or weed control at 125 g/ha: 0%

## CCOc1nc(-c2ccc(C(F)(F)F)cc2)nn1Cc1ccnc(C(F)(F)F)c1 [Compound 35, 4-[[5-ethoxy-3-[4-(trifluoromethyl)phenyl]-1H-1,2,4-triazole-1-yl]methyl]-2-(trifluoromethyl)pyridine]
Barnyardgrass [1]; 31 g ai/ha
  pest or weed control at 31 g/ha: 80%
Barnyardgrass [1]
  pest or weed control at 125 g/ha: 90%
foxtail, giant [2]; 31 g ai/ha
  pest or weed control at 31 g/ha: 80%
foxtail, giant [2]
  pest or weed control at 125 g/ha: 90%
Pigweed [3]; 31 g ai/ha
  pest or weed control at 31 g/ha: 100%
Pigweed [3]
  pest or weed control at 125 g/ha: 100%
Corn [4]; 31 g ai/ha
  Corn plant response rating (crop injury, 0 = no effect, 100 = complete kill) at 31 g/ha: 40%
Corn [4]
  Corn plant response rating (crop injury, 0 = no effect, 100 = complete kill) at 125 g/ha: 80%
ryegrass, Italian; 31 g ai/ha
  Plant response rating (scale of 0 to 100 where 0 is no effect and 100 is complete control): 30
ryegrass, Italian; 62 g ai/ha
  Plant response rating (scale of 0 to 100 where 0 is no effect and 100 is complete control): 55
ryegrass, Italian; 125 g ai/ha
  Plant response rating (scale of 0 to 100 where 0 is no effect and 100 is complete control): 60
ryegrass, Italian; 250 g ai/ha
  Plant response rating (scale of 0 to 100 where 0 is no effect and 100 is complete control): 80
Wheat (winter wheat); 31 g ai/ha
  Plant response rating (scale of 0 to 100 where 0 is no effect and 100 is complete control): 15
Wheat (winter wheat); 62 g ai/ha
  Plant response rating (scale of 0 to 100 where 0 is no effect and 100 is complete control): 20
Wheat (winter wheat); 125 g ai/ha
  Plant response rating (scale of 0 to 100 where 0 is no effect and 100 is complete control): 35
Wheat (winter wheat); 250 g ai/ha
  Plant response rating (scale of 0 to 100 where 0 is no effect and 100 is complete control): 30
galium; 31 g ai/ha
  Plant response rating (scale of 0 to 100 where 0 is no effect and 100 is complete control): 80
galium; 62 g ai/ha
  Plant response rating (scale of 0 to 100 where 0 is no effect and 100 is complete control): 80
galium; 125 g ai/ha
  Plant response rating (scale of 0 to 100 where 0 is no effect and 100 is complete control): 90
galium; 250 g ai/ha
  Plant response rating (scale of 0 to 100 where 0 is no effect and 100 is complete control): 90
Corn [6]; 31 g ai/ha
  Plant response rating (scale of 0 to 100 where 0 is no effect and 100 is complete control): 25
Corn [6]; 62 g ai/ha
  Plant response rating (scale of 0 to 100 where 0 is no effect and 100 is complete control): 20
Corn [6]; 125 g ai/ha
  Plant response rating (scale of 0 to 100 where 0 is no effect and 100 is complete control): 25
Corn [6]; 250 g ai/ha
  Plant response rating (scale of 0 to 100 where 0 is no effect and 100 is complete control): 50
foxtail, giant [7]; 31 g ai/ha
  Plant response rating (scale of 0 to 100 where 0 is no effect and 100 is complete control): 25
foxtail, giant [7]; 62 g ai/ha
  Plant response rating (scale of 0 to 100 where 0 is no effect and 100 is complete control): 40
foxtail, giant [7]; 125 g ai/ha
  Plant response rating (scale of 0 to 100 where 0 is no effect and 100 is complete control): 70
foxtail, giant [7]; 250 g ai/ha
  Plant response rating (scale of 0 to 100 where 0 is no effect and 100 is complete control): 85
johnsongrass; 31 g ai/ha
  Plant response rating (scale of 0 to 100 where 0 is no effect and 100 is complete control): 75
johnsongrass; 62 g ai/ha
  Plant response rating (scale of 0 to 100 where 0 is no effect and 100 is complete control): 85
johnsongrass; 125 g ai/ha
  Plant response rating (scale of 0 to 100 where 0 is no effect and 100 is complete control): 95
johnsongrass; 250 g ai/ha
  Plant response rating (scale of 0 to 100 where 0 is no effect and 100 is complete control): 100
lambsquarters; 31 g ai/ha
  Plant response rating (scale of 0 to 100 where 0 is no effect and 100 is complete control): 98
lambsquarters; 62 g ai/ha
  Plant response rating (scale of 0 to 100 where 0 is no effect and 100 is complete control): 95
lambsquarters; 125 g ai/ha
  Plant response rating (scale of 0 to 100 where 0 is no effect and 100 is complete control): 98
lambsquarters; 250 g ai/ha
  Plant response rating (scale of 0 to 100 where 0 is no effect and 100 is complete control): 100
nutsedge, yellow; 31 g ai/ha
  Plant response rating (scale of 0 to 100 where 0 is no effect and 100 is complete control): 20
nutsedge, yellow; 62 g ai/ha
  Plant response rating (scale of 0 to 100 where 0 is no effect and 100 is complete control): 10
nutsedge, yellow; 125 g ai/ha
  Plant response rating (scale of 0 to 100 where 0 is no effect and 100 is complete control): 30
nutsedge, yellow; 250 g ai/ha
  Plant response rating (scale of 0 to 100 where 0 is no effect and 100 is complete control): 35
Pigweed [8]; 31 g ai/ha
  Plant response rating (scale of 0 to 100 where 0 is no effect and 100 is complete control): 98
Pigweed [8]; 62 g ai/ha
  Plant response rating (scale of 0 to 100 where 0 is no effect and 100 is complete control): 98
Pigweed [8]; 125 g ai/ha
  Plant response rating (scale of 0 to 100 where 0 is no effect and 100 is complete control): 100
Pigweed [8]; 250 g ai/ha
  Plant response rating (scale of 0 to 100 where 0 is no effect and 100 is complete control): 100
ragweed; 31 g ai/ha
  Plant response rating (scale of 0 to 100 where 0 is no effect and 100 is complete control): 65
ragweed; 62 g ai/ha
  Plant response rating (scale of 0 to 100 where 0 is no effect and 100 is complete control): 75
ragweed; 125 g ai/ha
  Plant response rating (scale of 0 to 100 where 0 is no effect and 100 is complete control): 80
ragweed; 250 g ai/ha
  Plant response rating (scale of 0 to 100 where 0 is no effect and 100 is complete control): 85
Oilseed rape; Oilsee Rape, 250 g ai/ha
  Plant response rating (scale of 0 to 100 where 0 is no effect and 100 is complete control): 98
Oilseed rape; Oilseed Rape, 31 g ai/ha
  Plant response rating (scale of 0 to 100 where 0 is no effect and 100 is complete control): 80
Oilseed rape; Oilseed Rape, 62 g ai/ha
  Plant response rating (scale of 0 to 100 where 0 is no effect and 100 is complete control): 90
Oilseed rape; Oilseed Rape, 125 g ai/ha
  Plant response rating (scale of 0 to 100 where 0 is no effect and 100 is complete control): 80
chickweed; 31 g ai/ha
  Plant response rating (scale of 0 to 100 where 0 is no effect and 100 is complete control): 100
chickweed; 62 g ai/ha
  Plant response rating (scale of 0 to 100 where 0 is no effect and 100 is complete control): 100
chickweed; 125 g ai/ha
  Plant response rating (scale of 0 to 100 where 0 is no effect and 100 is complete control): 100
chickweed; 250 g ai/ha
  Plant response rating (scale of 0 to 100 where 0 is no effect and 100 is complete control): 100
oat, wild; 31 g ai/ha
  Plant response rating (scale of 0 to 100 where 0 is no effect and 100 is complete control): 45
oat, wild; 62 g ai/ha
  Plant response rating (scale of 0 to 100 where 0 is no effect and 100 is complete control): 50
oat, wild; 125 g ai/ha
  Plant response rating (scale of 0 to 100 where 0 is no effect and 100 is complete control): 85
oat, wild; 250 g ai/ha
  Plant response rating (scale of 0 to 100 where 0 is no effect and 100 is complete control): 90
